According to PMC4335513 (Critical Care, 2015):
Values after ≈ are worked out from the molar mass of the structure shown. Like-named read-outs stand apart in the source and are kept apart here. *1 amine or outer side, *2 acyl side, *3 side chain or, on linkers, in order; H or OH if unused. Where a SMILES comes first, the peptide text is derived from it. Bridges are numbered along the chain shown (N, C = ends). [ ]: non-standard residue; d: D form. The star is where a group is joined. pTerphenylCO(4''-OnC5H11) = CCCCCOc1ccc(-c2ccc(-c3ccc(C(=O)*)cc3)cc2)cc1; Orn(4R-OH,5R-OH) = O=C([C@H](C[C@@H](O)[C@@H](O)N[*:3])N[*:1])[*:2]; hTyr(3S-OH,4S-OH) = N[C@H](C(=O)O)[C@H](O)[C@@H](O)c1ccc(O)cc1; Pro(3S-OH,4S-Me) = C[C@H]1CN[C@H](C(=O)O)[C@H]1O; Hyp = O=C(O)[C@@H]1C[C@@H](O)CN1

Experiments:
[1] = set-up: AUC 0–24: unit not given beside the values; settings: ICU patients; mean (%CV); ref Liu et al. [25]; cited from earlier work
Description: Table 2 Comparison of exposures achieved in this study with other studies (mean (%CV)) | column: Anidulafungin / Liu et al. (ICU patients)

[2] = set-up: AUC 0–24: unit not given beside the values; settings: healthy volunteers; mean (%CV); ref Liu et al. [25]; cited from earlier work
Description: Table 2 Comparison of exposures achieved in this study with other studies (mean (%CV)) | column: Anidulafungin / Liu et al. (healthy volunteers)

[3] = Clinical outcome of therapy and mortality at 30 days in ICU patients; type: in vivo, human; settings: for patients with positive clinical outcome: completion of treatment course without change or addition of antifungal therapy; for 30-day mortality: died by day 30; for patients with indeterminate clinical outcome: outcome of therapy could not be judged
Procedure: (§1) Data collection was performed by trained staff at each participating center and entered into a case report form. Various demographic and clinical data were collected, including age, gender, height, weight, admission diagnosis, presence of extracorporeal circuits (for example, renal replacement therapy), clinical outcome of infection, and mortality at 30 days. A positive clinical outcome of therapy was defined as completion of treatment course without change or addition of antifungal therapy and with no additional antifungals commenced within 48 hours of discontinuation of the therapy, and if the outcome of therapy could not be judged for any reason, it was recorded as indeterminate. Also, organ-function data (including renal function: serum creatinine concentration during studied dosing interval; 24-hour measured urinary creatinine clearance (CrCL) (where available), antibiotic dosing (dose and frequency, time of dosing and sampling, day of antibiotic therapy), and infection data (including known or presumed pathogen and pathogen MIC) were collected.

[4] = Plasma pharmacokinetics in critically ill ICU patients (DALI study), noncompartmental analysis; type: in vivo, human
Procedure: The Defining Antibiotic Levels in Intensive care unit patients (DALI) study was a prospective, multicenter PK point-prevalence study. The protocol has been published in detail previously, and the participating investigators are listed in Additional file 1).
The choice of antifungal agent and dosing was at the discretion of the treating clinician. Each patient had three blood samples taken: blood sample A was a peak concentration taken 30 minutes after completion of intravenous infusion; blood sample B was a mid-dose blood sample taken 50% of the way through a dosing interval; and blood sample C was a pre-dose concentration taken at the end of a dosing interval (within 30 minutes of the next dose).
The stationary phase was a Kinetex C8 (50 × 2.10 mm, 1.7 μm) UHPLC column (Phenomenex, Torrance, CA, USA).
For anidulafungin analysis, the supernatant was washed with dichloromethane to remove lipid-soluble components. […] The methods were validated for linearity, LLOQ, matrix effects, precision and accuracy, and stock stability by using the FDA criteria for bioanalysis.
Clearance (CL) was calculated by using the equation Dose/AUC0-∞.

[5] = set-up: AUC 0–24: unit not given beside the values; settings: general patients; mean (%CV); ref Wurthwein et al. [26]; cited from earlier work
Description: Table 2 Comparison of exposures achieved in this study with other studies (mean (%CV)) | column: Caspofungin / Wurthwein et al. (general patients)

[6] = set-up: AUC 0–24: unit not given beside the values; settings: healthy volunteers; mean (95% CI); ref Stone et al. [27]; cited from earlier work
Description: Table 2 Comparison of exposures achieved in this study with other studies (mean (%CV)) | column: Caspofungin / Stone et al. [27]^a (healthy volunteers)

[7] = surgical ICU patients; ref Nguyen et al. [28]; cited from earlier work
Description: However, variability was higher compared with healthy volunteers (Table 2). This may be attributed to underlying pathophysiological changes that occur in ICU patients. The observed anidulafungin variability in AUC0–24, Cmin, and Cmax was not as high as observed in the study by Liu et al., who recruited a larger cohort of surgical ICU patients but was higher than variability observed in healthy volunteers (Table 2). The PK parameter estimates were ...

[8] = tested on: C. albicans; assay: Pathogen MIC reported for patient isolate; type: cell-based; settings: Candida albicans
Procedure: as §1

[9] = human, in vivo; cited from earlier work

CCCCCOc1ccc(-c2ccc(-c3ccc(C(=O)N[C@H]4C[C@@H](O)[C@@H](O)NC(=O)[C@@H]5[C@@H](O)[C@@H](C)CN5C(=O)[C@H]([C@@H](C)O)NC(=O)[C@H]([C@H](O)[C@@H](O)c5ccc(O)cc5)NC(=O)[C@@H]5C[C@@H](O)CN5C(=O)[C@H]([C@@H](C)O)NC4=O)cc3)cc2)cc1 [Anidulafungin, anidulafungin] ({pTerphenylCO(4''-OnC5H11)}-[Orn(4R-OH,5R-OH)]T[Hyp][hTyr(3S-OH,4S-OH)]T[Pro(3S-OH,4S-Me)]; lactam 1-C)
AUC 0–24 [1]: 93.0 (41)
C max [1]: 7.7 (56)
C min [1]: 3.0 (44)
AUC 0–24 [2]: 105.0 (22)
C max [2]: 7.0 (22)
C min [2]: 3.1 (25)
patients with positive clinical outcome [3]: 67%
30-day mortality [3]: 11%
patients with indeterminate clinical outcome [3]: 33%
AUC 0–24 ([4]; This study, ICU patients, anidulafungin 100 mg, plasma, UHPLC-MS/MS, linear trapezoidal, mean (%CV), n = 9): 55 (28)
C max ([4]; This study, ICU patients, anidulafungin 100 mg, plasma, observed peak 30 min after end of iv infusion, mean (%CV), n = 9): 3.9 (29)
C min ([4]; This study, ICU patients, anidulafungin 100 mg, plasma, observed pre-dose concentration, mean (%CV), n = 9): 1.8 (30)

CC[C@H](C)C[C@H](C)CCCCCCCCC(=O)N[C@H]1C[C@@H](O)[C@@H](NCCN)NC(=O)[C@@H]2[C@@H](O)CCN2C(=O)[C@H]([C@H](O)CCN)NC(=O)[C@H]([C@H](O)[C@@H](O)c2ccc(O)cc2)NC(=O)[C@@H]2C[C@@H](O)CN2C(=O)[C@H]([C@@H](C)O)NC1=O [Caspofungin, caspofungin]
AUC 0–24 [5]: 170.0 (34)
C max [5]: 13.8 (31)
patients with positive clinical outcome [3]: 43%
30-day mortality [3]: 29%
patients with indeterminate clinical outcome [3]: 11%
AUC 0–24 [6]: 97.0 (87–109)
C max [6]: 12.1 (11–13)
C min [6]: 1.4 (1.1–1.8)
AUC 0–24 ([4]; This study, ICU patients, caspofungin 70 mg (loading dose), 70% sampled on day 1, plasma, UHPLC-MS/MS, mean (%CV)): 52.0 (53)
C max ([4]; This study, ICU patients, caspofungin 70 mg (loading dose), plasma, observed peak, mean (%CV)): 3.9 (55)
C min ([4]; This study, ICU patients, caspofungin 70 mg (loading dose), plasma, observed pre-dose, mean (%CV)): 1.5 (57)
Cmin (range observed) [7]: 500 to 4100 ng/mL

OC(Cn1cncn1)(Cn1cncn1)c1ccc(F)cc1F [Fluconazole, fluconazole]
patients with positive clinical outcome [3]: 27%
30-day mortality [3]: 47%
patients with indeterminate clinical outcome [3]: 40%
C max ([4]; human, in vivo): 20 (14)
AUC 0–24 ([4]; human, in vivo, SD): 359 (259)
MIC [8]: 0.75 µg/mL (≈ 2.45 µM)
AUC 0–24 [9]: 409 (336–482)
C max [9]: 25 (22–28)
